Test results published in US20260365670A1, “EGFR INHIBITORS AND USES THEREOF” (DIZAL (JIANGSU) PHARMACEUTICAL CO., LTD., priority 2022, published 2026).
Where two headings read alike, the source gives them in different places. Each block holds one compound with its values, some of them ahead of it.

Experiments:
[1] = molecular target: T1, EGFR (C797S L858R) (Homo sapiens, UniProt P00533, C797S/L858R); experiment: Inhibition of EGFR (C797S L858R) biochemical enzymatic activity (HTRF); details: 1 mM ATP
T1 construct: purchased signalchem
Method: (§1) Biological Example 1: Inhibition of EGFR WT and Mutant Biochemical Enzymatic Activity
(§2) The inhibition potency of compounds against these enzymes was assessed using Homogenous Time Resolved Fluorescence approach (HTRF, CisBio. Cat No. 62TKOPEJ).
(§3) Inhibitory effects of the compounds were determined by measuring the enzymatic activity of EGFR enzyme phosphorylates 1 μM TK Substrate-biotin in the presence of 1 mM adenosine-5′-triphosphate (ATP) and varying concentrations of the test compound. The enzyme reaction buffer contains 5 mM MgCl2, 1 mM MnC12, 0.01% CHAPS, 1 mM dithiothreitol (DTT), 0.5% dimethylsulfoxide (DMSO), and 1× supplemented enzymatic buffer. The WT and mutant EGFR enzymes (SignalChem) were added to plates containing inhibitors, followed by activation of the kinase reaction by addition of ATP and peptide substrates. After incubation for 1 h at room temperature, the reaction was stopped by the addition of the detection reagent mix containing EDTA. The fluorescence was measured at 615 nm and 665 nm, respectively with excitation wavelength at 320 nm. The calculated signal ratio of 665 nm/615 nm is proportional to the kinase activity. The concentration of compound producing 50% inhibition of the respective kinase (IC50) was calculated using four-parameter logistic fit with XL-FIT.

[2] = molecular target: T2, EGFR L858R (Homo sapiens, UniProt P00533, L858R); experiment: Inhibition of EGFR L858R biochemical enzymatic activity (HTRF); details: 1 mM ATP
T2 construct: purchased Carna Bio
Method: as §1, §2, §3

[3] = molecular target: T3, EGFR Exon19Del/T790M (Homo sapiens, UniProt P00533, DEL746-750/T790M); experiment: Inhibition of EGFR Exon19Del/T790M biochemical enzymatic activity (HTRF); details: 1 mM ATP
T3 construct: purchased Carna Bio
Method: as §1, §2, §3

[4] = test system: Ba/F3 cells expressing EGFR mutations; experiment: Cell proliferation assay, Ba/F3 cells expressing EGFR mutations (CellTiter-Glo, 72 hours); assay type: cell-based
Method: (§4) Biological Example 2: Cell Proliferation Assays
(§5) Ba/F3 cells expressing EGFR mutations were seeded in 384-well plates at 5000 cells/well in RPMI1640 medium containing […]. PC-9 at 500 cells/well was seeded into 384-well plates in RPMI1640 medium with 10% FBS. After overnight incubation, the assay plates were dosed with compounds at a series of concentrations. Alongside dosing the assay plates, the day 0 plate was processed using CellTiter-Glo® Luminescent Cell Viability Assay (Promega) to measure the number of viable cells (G0). The assay plates were further incubated for 72 hours and the number of viable cells (G3) was measured. The percentage of proliferation was calculated as: […]=100×(G3 value of sample well−G0 value)/(G3 value of DMSO control−G0 value). The concentration of compound producing 50% proliferation inhibition (GI50) was further calculated in best-fit curves using XLFit software. N/A=not available.

[5] = molecular target: T4, EGFR wild type (Homo sapiens, UniProt P00533); experiment: Inhibition of EGFR wild type biochemical enzymatic activity (HTRF); details: 1 mM ATP
T4 construct: purchased Carna Bio
Method: as §1, §2, §3

[6] = molecular target: T5, EGFR L858R/T790M (Homo sapiens, UniProt P00533, L858R/T790M); experiment: Inhibition of EGFR L858R/T790M biochemical enzymatic activity (HTRF); details: 1 mM ATP
T5 construct: purchased Carna Bio
Method: as §1, §2, §3

[7] = molecular target: T6, EGFR Exon19Del (Homo sapiens, UniProt P00533, DEL746-750); experiment: Inhibition of EGFR Exon19Del biochemical enzymatic activity (HTRF); details: read-out: IC50 @Del19
T6 construct: purchased Carna Bio
Method: as §1, §2, §3

[8] = molecular target: T7, EGFR[T790M/C797S/d746-750] (Homo sapiens, UniProt P00533, C797S/DEL746-750/T790M); experiment: Inhibition of EGFR[T790M/C797S/d746-750] biochemical enzymatic activity (HTRF)
T7 construct: purchased Carna Bio
Method: as §1, §2, §3

[9] = molecular target: T8, EGFR (d746-750 C797S) (Homo sapiens, UniProt P00533, C797S/DEL746-750); experiment: Inhibition of EGFR (d746-750 C797S) biochemical enzymatic activity (HTRF); details: 1 mM ATP
T8 construct: purchased signalchem
Method: as §1, §2, §3

[10] = test system: PC-9; experiment: Cell proliferation assay, PC-9 cells (CellTiter-Glo, 72 hours); assay type: cell-based; details: PC9 cells
Method: as §4, §5

[11] = molecular target: T9, EGFR[T790M/C797S/L858R] (Homo sapiens, UniProt P00533, C797S/L858R/T790M); experiment: Inhibition of EGFR[T790M/C797S/L858R] biochemical enzymatic activity (HTRF); details: 1 mM ATP
T9 construct: purchased Carna Bio
Method: as §1, §2, §3

T1 sequence (P00533 25-1210 C797S/L858R): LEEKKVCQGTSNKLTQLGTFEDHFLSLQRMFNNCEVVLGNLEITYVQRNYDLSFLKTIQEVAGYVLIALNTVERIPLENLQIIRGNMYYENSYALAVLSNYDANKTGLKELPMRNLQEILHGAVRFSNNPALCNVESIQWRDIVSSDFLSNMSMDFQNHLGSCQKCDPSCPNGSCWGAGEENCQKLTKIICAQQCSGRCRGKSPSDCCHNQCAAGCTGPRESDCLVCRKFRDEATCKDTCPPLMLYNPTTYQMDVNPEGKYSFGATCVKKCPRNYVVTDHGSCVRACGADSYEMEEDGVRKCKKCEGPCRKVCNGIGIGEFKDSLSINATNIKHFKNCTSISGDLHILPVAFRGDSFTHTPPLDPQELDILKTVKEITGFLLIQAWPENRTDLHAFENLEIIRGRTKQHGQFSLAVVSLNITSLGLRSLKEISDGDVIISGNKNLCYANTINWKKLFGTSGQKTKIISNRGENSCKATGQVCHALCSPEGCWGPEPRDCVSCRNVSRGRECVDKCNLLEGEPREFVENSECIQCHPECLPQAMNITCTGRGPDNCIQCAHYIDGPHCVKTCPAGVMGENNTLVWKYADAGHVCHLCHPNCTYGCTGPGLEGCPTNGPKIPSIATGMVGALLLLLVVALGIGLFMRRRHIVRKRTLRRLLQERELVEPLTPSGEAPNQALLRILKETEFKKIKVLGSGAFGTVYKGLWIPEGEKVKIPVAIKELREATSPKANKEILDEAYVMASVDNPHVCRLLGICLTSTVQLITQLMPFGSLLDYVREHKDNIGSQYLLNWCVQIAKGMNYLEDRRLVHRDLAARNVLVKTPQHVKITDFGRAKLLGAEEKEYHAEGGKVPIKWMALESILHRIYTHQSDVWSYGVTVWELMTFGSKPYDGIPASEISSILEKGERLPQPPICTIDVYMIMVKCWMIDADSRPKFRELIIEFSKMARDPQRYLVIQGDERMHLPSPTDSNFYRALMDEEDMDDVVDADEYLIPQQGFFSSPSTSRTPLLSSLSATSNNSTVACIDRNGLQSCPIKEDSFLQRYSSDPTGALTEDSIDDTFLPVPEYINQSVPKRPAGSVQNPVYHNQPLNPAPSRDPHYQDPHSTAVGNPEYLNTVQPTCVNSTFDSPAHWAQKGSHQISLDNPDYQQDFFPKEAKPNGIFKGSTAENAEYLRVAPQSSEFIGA
T2 sequence (P00533 25-1210 L858R): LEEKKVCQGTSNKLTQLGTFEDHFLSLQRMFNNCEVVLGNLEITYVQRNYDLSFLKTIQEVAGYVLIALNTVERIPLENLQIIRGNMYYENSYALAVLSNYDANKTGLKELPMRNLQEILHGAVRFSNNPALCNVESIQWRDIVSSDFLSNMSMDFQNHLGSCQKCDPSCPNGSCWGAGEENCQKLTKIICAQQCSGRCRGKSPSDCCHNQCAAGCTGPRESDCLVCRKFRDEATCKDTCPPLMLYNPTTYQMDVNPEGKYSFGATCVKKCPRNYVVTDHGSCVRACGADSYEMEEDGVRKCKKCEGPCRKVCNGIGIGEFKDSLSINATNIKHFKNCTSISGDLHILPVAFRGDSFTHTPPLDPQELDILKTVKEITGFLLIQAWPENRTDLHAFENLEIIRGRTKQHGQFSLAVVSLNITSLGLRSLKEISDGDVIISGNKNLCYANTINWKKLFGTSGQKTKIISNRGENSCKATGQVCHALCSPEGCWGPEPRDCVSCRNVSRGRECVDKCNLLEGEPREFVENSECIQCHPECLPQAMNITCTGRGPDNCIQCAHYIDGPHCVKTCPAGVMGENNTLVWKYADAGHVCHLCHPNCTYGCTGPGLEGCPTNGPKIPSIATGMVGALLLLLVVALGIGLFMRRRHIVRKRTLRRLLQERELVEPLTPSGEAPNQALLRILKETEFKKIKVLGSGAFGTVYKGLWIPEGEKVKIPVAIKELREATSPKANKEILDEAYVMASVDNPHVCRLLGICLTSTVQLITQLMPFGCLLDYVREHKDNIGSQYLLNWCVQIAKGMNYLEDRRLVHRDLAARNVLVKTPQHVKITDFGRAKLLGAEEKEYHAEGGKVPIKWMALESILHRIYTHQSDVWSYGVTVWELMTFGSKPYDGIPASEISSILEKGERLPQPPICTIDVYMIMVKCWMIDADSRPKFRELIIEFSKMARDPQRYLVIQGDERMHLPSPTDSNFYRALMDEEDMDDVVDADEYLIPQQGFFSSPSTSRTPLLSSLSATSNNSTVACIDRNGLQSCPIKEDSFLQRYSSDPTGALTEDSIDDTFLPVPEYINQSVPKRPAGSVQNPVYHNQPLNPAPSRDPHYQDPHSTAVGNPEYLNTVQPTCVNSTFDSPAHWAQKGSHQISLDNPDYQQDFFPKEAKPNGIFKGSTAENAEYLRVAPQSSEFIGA
T3 sequence (P00533 with tags, fused parts or gaps DEL746-750/T790M limits assumed): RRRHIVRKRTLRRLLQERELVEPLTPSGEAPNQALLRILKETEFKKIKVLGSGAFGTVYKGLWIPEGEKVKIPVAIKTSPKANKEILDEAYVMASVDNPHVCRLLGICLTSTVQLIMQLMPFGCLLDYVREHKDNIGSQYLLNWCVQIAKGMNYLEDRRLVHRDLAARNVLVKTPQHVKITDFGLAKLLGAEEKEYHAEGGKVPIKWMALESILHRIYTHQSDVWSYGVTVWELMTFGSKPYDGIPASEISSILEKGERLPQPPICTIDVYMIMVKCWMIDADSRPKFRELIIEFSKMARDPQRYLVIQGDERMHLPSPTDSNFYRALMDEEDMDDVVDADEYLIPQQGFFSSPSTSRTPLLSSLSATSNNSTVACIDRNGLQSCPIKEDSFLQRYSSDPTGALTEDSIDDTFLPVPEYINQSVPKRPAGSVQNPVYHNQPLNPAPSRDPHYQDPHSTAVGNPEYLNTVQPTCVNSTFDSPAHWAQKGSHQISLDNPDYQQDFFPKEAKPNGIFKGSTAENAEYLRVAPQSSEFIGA
T8 sequence (P00533 with tags, fused parts or gaps DEL746-750/C797S limits assumed): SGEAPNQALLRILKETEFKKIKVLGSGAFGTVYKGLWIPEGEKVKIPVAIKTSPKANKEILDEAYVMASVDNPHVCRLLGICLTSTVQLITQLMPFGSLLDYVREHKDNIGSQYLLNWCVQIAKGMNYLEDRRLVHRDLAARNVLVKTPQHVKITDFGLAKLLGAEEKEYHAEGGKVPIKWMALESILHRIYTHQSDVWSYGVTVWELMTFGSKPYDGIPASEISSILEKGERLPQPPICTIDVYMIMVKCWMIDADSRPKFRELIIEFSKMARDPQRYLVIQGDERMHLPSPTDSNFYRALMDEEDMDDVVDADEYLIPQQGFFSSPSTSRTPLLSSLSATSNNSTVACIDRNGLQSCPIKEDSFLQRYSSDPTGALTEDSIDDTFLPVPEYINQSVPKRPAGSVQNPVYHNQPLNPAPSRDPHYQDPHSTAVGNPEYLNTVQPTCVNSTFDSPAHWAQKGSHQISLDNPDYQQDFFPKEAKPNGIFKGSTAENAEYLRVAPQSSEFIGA
T7 sequence (P00533 with tags, fused parts or gaps DEL746-750/T790M/C797S limits assumed): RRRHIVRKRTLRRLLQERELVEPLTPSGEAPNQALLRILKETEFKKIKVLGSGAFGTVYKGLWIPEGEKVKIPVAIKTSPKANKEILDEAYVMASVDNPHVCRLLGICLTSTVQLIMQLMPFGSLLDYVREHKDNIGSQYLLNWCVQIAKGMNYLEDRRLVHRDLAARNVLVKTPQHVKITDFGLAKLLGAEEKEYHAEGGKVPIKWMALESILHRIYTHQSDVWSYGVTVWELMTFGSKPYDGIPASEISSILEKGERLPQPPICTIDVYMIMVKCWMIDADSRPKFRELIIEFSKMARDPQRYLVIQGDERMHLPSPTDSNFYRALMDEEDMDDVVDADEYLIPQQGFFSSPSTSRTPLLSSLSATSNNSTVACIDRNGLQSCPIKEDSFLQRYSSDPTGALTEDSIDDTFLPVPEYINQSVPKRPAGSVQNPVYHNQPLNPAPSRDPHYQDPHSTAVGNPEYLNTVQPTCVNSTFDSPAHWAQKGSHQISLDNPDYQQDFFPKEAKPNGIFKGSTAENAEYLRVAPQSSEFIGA
T6 sequence (P00533 with tags, fused parts or gaps DEL746-750 limits assumed): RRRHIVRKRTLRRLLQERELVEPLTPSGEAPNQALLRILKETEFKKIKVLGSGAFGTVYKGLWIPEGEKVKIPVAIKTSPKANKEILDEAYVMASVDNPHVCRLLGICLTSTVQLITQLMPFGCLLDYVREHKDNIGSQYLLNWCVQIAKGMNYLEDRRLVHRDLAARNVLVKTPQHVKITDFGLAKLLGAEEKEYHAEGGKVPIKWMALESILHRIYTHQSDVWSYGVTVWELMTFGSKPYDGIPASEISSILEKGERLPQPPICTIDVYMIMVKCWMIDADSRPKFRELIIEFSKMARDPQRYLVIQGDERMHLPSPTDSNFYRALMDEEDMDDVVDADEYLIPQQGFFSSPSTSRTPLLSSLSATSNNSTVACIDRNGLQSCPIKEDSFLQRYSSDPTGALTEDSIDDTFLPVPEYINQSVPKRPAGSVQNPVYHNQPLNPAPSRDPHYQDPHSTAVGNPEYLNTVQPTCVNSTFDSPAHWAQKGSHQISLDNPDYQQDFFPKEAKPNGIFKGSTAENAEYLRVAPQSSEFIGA

IC50 ([1]; EGFR L858-C797S, 1 h, room temperature, read-out: IC50 (nM) @L858-C797S): 3370 nM
IC50 ([2]; 1 h, room temperature, read-out: IC50 (nM) @L858R): 1270 nM
IC50 ([3]; EGFR Del19-T790M, 1 h, room temperature, read-out: IC50 (nM) @Del19-T790M): 3410 nM
GI50 ([4]; BaF3 cells, EGFR DEL19-C797S, CellTiter-Glo, read-out: DEL19-C797S/BaF3 GI50): 95 nM
GI50 ([4]; BaF3 cells, EGFR DEL19-T790-C797S, CellTiter-Glo, read-out: DEL19-T790-C797S/BaF3 GI50): 340 nM
GI50 ([4]; BaF3 cells, EGFR L858R, CellTiter-Glo, read-out: L858R/BaF3 GI50): 47 nM
GI50 ([4]; BaF3 cells, EGFR L858R-C797S, CellTiter-Glo, read-out: L858R-C797S/BaF3 GI50): 173 nM
GI50 ([4]; BaF3 cells, EGFR L858R-T790-C797S, CellTiter-Glo, read-out: L858R-T790-C797S/BaF3 GI50): 49 nM
GI50 ([4]; BaF3 cells, EGFR L858R-T790M, CellTiter-Glo, read-out: L858R-T790M/BaF3 GI50): 343 nM
GI50 ([4]; EGFR DEL19-T790M, CellTiter-Glo, read-out: DEL19-T790M GI50): 171 nM
IC50 ([5]; EGFR WT, 1 h, room temperature, read-out: IC50 (nM) @WT): > 5000 nM
IC50 ([6]; EGFR L858R-T790M, 1 h, room temperature, read-out: IC50 (nM) @L858R-T790M): > 5000 nM
IC50 ([7]; EGFR Del19, 1 mM ATP, 1 h, room temperature): 235 nM
IC50 ([8]; EGFR T790M-C797S-Del19, 1 mM ATP, 1 h, room temperature, read-out: IC50 (nM) @T790M - C797S - Del19): 2080 nM
IC50 ([9]; EGFR Del19-C797S, 1 h, room temperature, read-out: IC50 (nM) @Del19-C797S): 391 nM
GI50 ([10]; CellTiter-Glo, read-out: PC9 GI50): 297 nM
IC50 ([11]; EGFR T790M-C797S-L858R, 1 h, room temperature, read-out: IC50 (nM) @T790M- C797S - L858R): > 5000 nM
SMILES: CN1C2CC1CN(c1ccc3nc4n(c3c1)C13CCC(CN(CCOc5c(cnn5C)-c5cc(cn(C)c5=O)C(=O)N4)C1)C3)C2 (single isomer, unassigned) [Example A98A]

IC50 ([1]; EGFR (C797S L858R), 1 h at room temperature, read-out: IC50 @L858-C797S): > 5000 nM
IC50 ([2]; 1 h at room temperature, read-out: IC50 @L858R): > 5000 nM
IC50 ([3]; EGFR Exon19Del/T790M, 1 h at room temperature, read-out: IC50 @Del19-T790M): 2480 nM
GI50 ([4]; BaF3 cells, EGFR DEL19 - C797S, read-out: GI50 DEL19 - C797S/BaF3): 865 nM
GI50 ([4]; BaF3 cells, EGFR DEL19 - T790-C797S, read-out: GI50 DEL19 - T790-C797S/BaF3): 476 nM
GI50 ([4]; BaF3 cells, EGFR L858R - C797S, read-out: GI50 L858R - C797S/BaF3): 602 nM
GI50 ([4]; BaF3 cells, EGFR L858R - T790-C797S, read-out: GI50 L858R - T790-C797S/BaF3): 75 nM
GI50 ([4]; BaF3 cells, EGFR L858R - T790M, read-out: GI50 L858R - T790M/BaF3): 354 nM
GI50 ([4]; BaF3 cells, EGFR L858R, read-out: GI50 L858R/BaF3): 1770 nM
GI50 ([4]; EGFR DEL19 - T790M, read-out: GI50 DEL19 - T790M): 468 nM
IC50 ([5]; EGFR wild type, 1 h at room temperature, read-out: IC50 @WT): > 5000 nM
IC50 ([6]; EGFR L858R/T790M, 1 h at room temperature, read-out: IC50 @L858R-T790M): > 5000 nM
IC50 ([7]; EGFR Exon19Del, 1 mM ATP, 1 h at room temperature): > 5000 nM
IC50 ([8]; EGFR[T790M/C797S/d746-750], 1 mM ATP, 1 h at room temperature, read-out: IC50 @T790M - C797S - Del19): 1080 nM
IC50 ([9]; EGFR (d746-750 C797S), 1 h at room temperature, read-out: IC50 @Del19-C797S): > 5000 nM
GI50 ([10]; read-out: GI50 PC9): 1590 nM
IC50 ([11]; EGFR[T790M/C797S/L858R], 1 h at room temperature, read-out: IC50 @T790M- C797S - L858R): > 5000 nM
SMILES: Cc1cc2cc(n1)-c1cnn(C)c1OCCN1CC3CCC(C3)(C1)n1c(nc3ccc(N4CC[C@@H](N(C)C)C4)cc31)NC2=O (single isomer, unassigned) [Example B42A]
